Measured values reported in patent publication US7982043B2, “Protein tyrosine kinase enzyme inhibitors” (Wyeth LLC, priority 2003, dated 2011).
Converted amounts (≈) assume the structure as drawn. Read-outs that look alike come from different tables or passages of the source.

Columns and labels:
Type in all cases: cell-based
[1] = target: mouse fibroblast cell line transfected with the HER-2 oncogene (3T3/neu) (UniProt P04626, cells depend on it, species not given); experiment: Cell proliferation assay (SRB), 3T3/neu; settings: EGFR −, Her-2 +++, 2 days, SRB; for GI50: read-out: CELL IC50 3T3/NEU (converted)
[2] = test system: A431 cells; experiment: Cell proliferation assay (SRB), A431; settings: for IC50: Homo sapiens, A-431, 48 h, read-out: CELL IC50 A431
[3] = test system: SK-Br-3 cells; experiment: Cell proliferation assay (SRB), SK-Br-3; settings: EGFR −, Her-2 +++, 2 days, SRB; for IC50: Homo sapiens, SK-BR-3, 48 h, read-out: CELL IC50 SKBr3
[4] = test system: MDA-MB-435 cells; experiment: Cell proliferation assay (SRB), MDA-MB-435; settings: EGFR −, Her-2 −, 2 days, SRB; for IC50: Homo sapiens, MDA-MB-435, 48 h, read-out: CELL IC50 MDA-MB-435
[5] = test system: SW620 cells; experiment: Cell proliferation assay (SRB), SW620; settings: EGFR −, Her-2 −, 2 days, SRB; for IC50: Homo sapiens, SW-620, 48 h, read-out: CELL IC50 SW620

SMILES	GI50 [1] [µM]	IC50 ([2]; EGFR +++, Her-2 +, 2 days, SRB) [µg/mL]	IC50 [3] [µg/mL]	IC50 [4] [µg/mL]	IC50 [5] [µg/mL]	CELL IC50 3T3/NEU [1] [µg/mL]	CELL IC50 A431 ([2]; EGFR +++, Her-2 +, 2 days, SRB) [µg/mL]	CELL IC50 SKBr3 [3] [µg/mL]	CELL IC50 MDA-MB-435 [4] [µg/mL]	CELL IC50 SW620 [5] [µg/mL]	IC50 [2] [µg/mL]
CCOc1cc2ncc(C#N)c(Nc3ccc(Cn4ccnc4)c(Cl)c3)c2cc1N [Example 61, 6-amino-4-[3-chloro-4-(1H-imidazol-1-ylmethyl)anilino]-7-ethoxy-3-quinolinecarbonitrile]	> 11.9	> 5	0.75 (≈ 1.79 µM)	> 5	> 5	–	–	–	–	–	–
COc1cc2ncc(C#N)c(Nc3ccc(N(Cc4cccnc4)C(C)=O)c(Cl)c3)c2cc1N [Example 49]	–	–	–	–	–	2.4	>5	3.41	3.76	>5	–
C=CC(=O)Nc1ccc2ncc(C#N)c(Nc3ccc(Sc4nccn4C)c(Cl)c3)c2c1 [Example 21, N-{4-[3-Chloro-4-(1-methyl-1H-imidazol-2-ylsulfanyl)-phenylamino]-3-cyano-quinolin-6-yl}-acrylamide]	1	0.62 (≈ 1.35 µM)	0.01 (≈ 0.0217 µM)	4.57 (≈ 9.91 µM)	1.84 (≈ 3.99 µM)	–	–	–	–	–	–
CCOc1cc2ncc(C#N)c(Nc3ccc(Sc4nccc(C)n4)c(Cl)c3)c2cc1[N+](=O)[O-] [Example 63, 4-{3-chloro-4-[(4-methyl-2-pyrimidinyl)sulfanyl]anilino}-7-ethoxy-6-nitro-3-quinolinecarbonitrile]	3.02	1.2 (≈ 2.43 µM)	0.45 (≈ 0.913 µM)	1.3 (≈ 2.64 µM)	0.9 (≈ 1.83 µM)	–	–	–	–	–	–
CCOc1cc2ncc(C#N)c(Nc3ccc(Nc4nnc(C(F)(F)F)s4)c(Cl)c3)c2cc1N [Example 59, 6-amino-4-(3-chloro-4-{[5-(trifluoromethyl)-1,3,4-thiadiazol-2-yl]amino}anilino)-7-ethoxy-3-quinolinecarbonitrile]	> 9.88	> 5	0.551 (≈ 1.09 µM)	0.91 (≈ 1.8 µM)	1.38 (≈ 2.73 µM)	–	–	–	–	–	–
COc1cc2ncc(C#N)c(Nc3ccc(Sc4nccn4C)c(Cl)c3)c2cc1[N+](=O)[O-] [Example 35, 4-({3-chloro-4-[(1-methyl-1H-imidazol-2-yl)sulfanyl]phenyl}amino)-7-methoxy-6-nitro-3-quinolinecarbonitrile]	8.76	2.88 (≈ 6.17 µM)	0.669 (≈ 1.43 µM)	1 (≈ 2.14 µM)	1.55 (≈ 3.32 µM)	–	–	–	–	–	–
CCOc1cc2ncc(C#N)c(Nc3ccc(Sc4nc(C)cc(C)n4)c(Cl)c3)c2cc1NC(=O)/C=C/CN(C)C [Example 66, (E)-N-(4-{3-chloro-4-[(4,6-dimethyl-2-pyrimidinyl)sulfanyl]anilino}-3-cyano-7-ethoxy-6-quinolinyl)-4-(dimethylamino)-2-butenamide]	0.017	0.24 (≈ 0.408 µM)	0.006 (≈ 0.0102 µM)	0.2 (≈ 0.34 µM)	0.32 (≈ 0.544 µM)	–	–	–	–	–	–
CCOc1cc2ncc(C#N)c(Nc3ccc(Cn4ccnc4)c(Cl)c3)c2cc1NC(=O)/C=C/CN(C)C [Example 62, (E)-N-{4-[3-chloro-4-(1H-imidazol-1-ylmethyl)anilino]-3-cyano-7-ethoxy-6-quinolinyl}-4-(dimethylamino)-2-butenamide]	1.87	–	0.045 (≈ 0.0849 µM)	2.1 (≈ 3.96 µM)	3.8 (≈ 7.17 µM)	–	–	–	–	–	0.95 (≈ 1.79 µM)
CCOc1cc2ncc(C#N)c(Nc3ccc(Oc4ccncc4)c(Cl)c3)c2cc1N [Example 55, 6-amino-4-[3-chloro-4-(4-pyridinyloxy)anilino]-7-ethoxy-3-quinolinecarbonitrile]	> 11.6	> 5	> 5	1.61 (≈ 3.73 µM)	> 5	–	–	–	–	–	–
CCOc1cc2ncc(C#N)c(Nc3ccc(Oc4ccncc4)c(Cl)c3)c2cc1NC(=O)/C=C/CN(C)C [Example 56, (E)-N-{4-[3-chloro-4-(4-pyridinyloxy)anilino]-3-cyano-7-ethoxy-6-quinolinyl}-4-(dimethylamino)-2-butenamide]	> 9.21	–	1.51 (≈ 2.78 µM)	2.06 (≈ 3.79 µM)	> 5	–	–	–	–	–	3.27 (≈ 6.02 µM)
